The record followed here is patent publication US20260184689A1, “PIPERIDINE-SUBSTITUTED BENZOIC ACID COMPOUND, AND PHARMACEUTICAL COMPOSITION AND USE THEREOF” (SHANGHAI YISHENG BIOPHARMACEUTICAL COMPANY LIMITED, priority 2022, published 2026).

A short description of data set [1]: Pharmacokinetic activity assay in mice. In kind it is in vivo. Particulars: IV 1 mg/kg, PO 10 mg/kg. The procedure:
Experimental objective: The test substance was administered to mice via single-dose intravenous and oral gavage routes, and its plasma concentration was measured to evaluate the pharmacokinetic characteristics in mice.
Experimental animals: C57 mice or other available test mice
IV dose: 1 mg/kg; vehicle: 0.5% DMSO or 0.5% MeOH-5% pharmaceutical grade polyethylene glycol-15 hydroxystearate-PBS
Sample collection: 0.03 mL of blood samples were collected from the saphenous vein in experimental animals by puncture at each time point, and the actual blood collection time was recorded. All blood samples were added to commercially available EDTA-K2 anticoagulant tubes with a specification of 1.5 mL (supplied by Jiangsu Kangjian Medical Apparatus Co., Ltd.). After collection, within half an hour, the blood sample was centrifuged at 4° C., 3000 g for 10 min to aspirate the supernatant plasma, which was put in dry ice immediately, and stored in a refrigerator at −80° C. for LCMS/MS analysis.
Blood sampling points: 5 min, 15 min, 30 min, 1 hour, 2 hours, 4 hours, 6 hours, 8 hours, 12 hours, 20 hours, 24 hours.
Test compounds: positive compound LNP023, the final product of Example 158, the final products (compound 159A and compound 159B) of Example 159, and compound 11 of Example 75.

In data set [2] the test system is Sheep Anti-Rat Fx1A Serum induced Heymann nephritis. The data set can be described thus: In vivo efficacy assay of passive Heymann nephritis in rats. The following applies: male SD rats, intragastric twice a day for 14 days, 5, 20 and 60 mpk; LNP023 60 mpk. The source says: Experimental objective: To investigate the ability of the compounds of the present disclosure to improve renal function of Sheep Anti-Rat Fx1A Serum induced Heymann nephritis in rats, including the evaluation of reducing proteinuria level and improving renal tissue damage.
Experimental animals: Male SD rats, 7 to 10 weeks old, weighing between 200 to 300 g.
Urine was collected from rats on D-2 before administration. On D1, the first day of the experiment, animals in the control group (group 1) were administered 5 mL/kg of Sheep Non-Immune serum via a single tail vein injection; animals in the model and administration groups (groups 2 to 6) were administered 5 mL/kg of Sheep Anti-Rat Fx1A Serum via a single tail vein injection.
The rats were treated by intragastric administration twice a day with an interval of 8 hours and a volume of 10 mL/kg. On D1, 1 hour before modeling, animals in groups 1 and 2 were administered blank vehicle 20% PEG400/10% Solutol/70% water; animals in group 3 were administered LNP023 (60 mpk); animals in groups 4 to 6 were administered different concentrations of synthetic compounds (5 mpk, 20 mpk, and 60 mpk); 8 hours after the first administration, each group was administered again with the same dose and volume as the first administration. From D2 to D14, animals in each group were administered different compounds or vehicles for 14 consecutive days (including the first day) according to the dose, volume, administration method, and frequency on D1.
Urine collection: Urine samples were collected from rats on D-2 before administration, and 2 to 4 hours and 4 to 6 hours after the first administration on D4, D6, D8, D11, and D14 after administration, transferred to EP tubes and stored in a refrigerator at −80° C. to −60° C. for the detection of urine protein and creatinine in rats.
Kidney sample collection: All animals were euthanized with CO2 inhalation anesthesia on Day 15, and bilateral kidneys were collected. The left kidney was cut transversely, and the right kidney was cut longitudinally. Half of the transversely cut kidney (left side) and half of the longitudinally cut kidney (right side) were fixed in formalin (placed in the same EP tube).
4. […] Urine total protein (uTP) in rats was detected without dilution; if exceeding the upper detection limit, it was 10-fold diluted (10 μL of sample+90 μL of saline (0.9% saline)) first (Decrease mode); if still exceeding the upper detection limit after 10-fold dilution, it was 100-fold diluted (2 μL of sample+198 μL of saline (0.9% saline)) (Increase mode). Data were read by the analytical instrument HITACHI LST008AS(P). • (2) Kidney pathological scoring: The degree of drug damage to rat kidneys (paraffin sections) was analyzed by HE staining. […]

Data set [3] has as its system LPS-induced complement activation. The data set can be described thus: In vivo efficacy assay of LPS-induced complement activation in mice. The following applies: female C57BL/6J mice, LPS 100 μg intraperitoneal, PO. The procedure:
Experimental objective: To investigate the inhibitory effect of the compounds of the present disclosure on complement activation in mice induced by LPS stimulation.
Experimental animals: Female C57BL/6J mice, 7 to 9 weeks old, weighing between 17 to 23 g.
Experimental procedure: 100 μg of lipopolysaccharide (LPS) in Salmonella typhimurium (Sigma) dissolved in 100 μL of sterile PBS was intraperitoneally injected to induce complement activation in mice. Negative control animals were intraperitoneally injected 100 μL of sterile PBS and administered alone by tube feeding (PO). Positive control animals were intraperitoneally injected LPS and PO drug vehicles (0.5% (w/v) methyl cellulose and 0.5% (v/v) Tween 80).
Sample collection: 0.3 mL of blood samples were collected from the orbital venous plexus. All blood samples were added to commercially available EDTA-K2 anticoagulant tubes with a specification of 1.5 mL. After collection, within half an hour, the blood sample was centrifuged at 4° C., 3000 g for 10 min to aspirate the supernatant plasma, which was put in dry ice immediately, and stored in a refrigerator at −80° C. for Western blot analysis of downstream C3d protein levels after complement activation.
Sample analysis: Mouse plasma (5 μL)+Lysis buffer (27.5 μL)+Loading buffer (12.5 μL)+Reducing buffer (5 μL) were mixed well and incubated at 100° C. for 15 min with a loading volume of 5 μL/well, i.e., a loading volume of plasma of 0.5 μL per well.
Test compounds: positive compound LNPO23, the final product of Example 158, the final products (compound 159A and compound 159B) of Example 159, and compound 11 of Example 75.

Take `CCCC1CCN(C(=O)c2c(OC)cc(C)c3[nH]ccc23)C(c2ccc(C(=O)O)cc2)C1` (single isomer, unassigned) [Compound 159B]: in data set [1], the “clearance rate during in vivo metabolism, compared with LNP023” value is on record as “comparable or superior” and the “half-life during in vivo metabolism, compared with LNP023” value is “comparable or superior”. In data set [2], the “performance in the kidney disease model through urine and kidney pathology analysis, compared with LNP023” value is “performed better”. The “inhibition of LPS-induced complement activation (plasma C3d levels), compared with LNP023” value in data set [3] is listed as “superior or equivalent”.
